Assay results from patent US20130252930A1 (BIOMARIN PHARMACEUTICAL INC., priority 2010, published 2013).

molecular target: T1, CYP17 (human testicular microsome) (Homo sapiens, UniProt P05093); experiment: CYP17 enzymatic assay (% inhibition at 1 nM) (Biological Example 12); format: biochemical; settings: compound at 1 nM
T1 construct: using microsomal fraction from human testis (Celsis Cat #S00110) as the enzyme source; tissue Celsis S00110; host or cells: human testis microsomal fraction
T1 sequence (P05093 1-508): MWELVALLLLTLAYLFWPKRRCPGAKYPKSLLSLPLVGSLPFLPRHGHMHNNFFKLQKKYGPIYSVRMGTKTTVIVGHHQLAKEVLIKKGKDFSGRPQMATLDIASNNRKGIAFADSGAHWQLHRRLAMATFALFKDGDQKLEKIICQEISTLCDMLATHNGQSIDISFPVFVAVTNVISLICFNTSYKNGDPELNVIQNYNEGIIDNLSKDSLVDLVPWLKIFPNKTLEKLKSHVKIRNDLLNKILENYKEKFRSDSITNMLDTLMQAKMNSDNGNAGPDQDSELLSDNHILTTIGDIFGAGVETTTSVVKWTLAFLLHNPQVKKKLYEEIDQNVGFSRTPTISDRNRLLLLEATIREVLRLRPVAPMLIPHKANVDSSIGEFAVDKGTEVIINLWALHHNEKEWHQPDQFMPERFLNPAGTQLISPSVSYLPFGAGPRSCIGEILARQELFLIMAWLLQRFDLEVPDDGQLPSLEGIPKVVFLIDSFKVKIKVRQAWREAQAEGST

Structure (SMILES)	Biological Example No. 12: CYP17 enzymatic assay % inhibition at 1 nM
C[C@]12CCNC(=O)CC1CCC1C2CC[C@]2(C)C(c3cncc(F)c3)=CCC12 (stereo partly drawn) [Compound 481, (5aS,7aS)-8-(5-fluoropyridin-3-yl)-5a,7a-dimethyl-4,5,5a,5b,6,7,7a,10,10a,10b,11,12,12a-tetradecahydrocyclopenta[5,6]naphtho[1,2-d]azepin-2(1H)-one]	N (N means the compound had a percent inhibition of greater than or equal to 10% but less than 50%)

same assay, conditions: compound at 1 nM, read-out: Biological Example No. 12: CYP17 enzymatic assay % inhibition at 1 nM

Structure (SMILES)	inhibition at 0.001 µM [%]
C[C@]12CCC3(CO3)CC1CCC1C2CC[C@]2(C)C(c3cccnc3)=CCC12 (stereo partly drawn) [Compound 475, 3-((10S,13S)-10,13-dimethyl-1,2,4,5,6,7,8,9,10,11,12,13,14,15-tetradecahydrospiro[cyclopenta[a]phenanthrene-3,2′-oxiran]-17-yl)pyridine]	10 to 50
C[C@]12CCC3(CCC(=O)O3)CC1CCC1C2CC[C@]2(C)C(c3cccnc3)=CCC12 (stereo partly drawn) [Compound 477, (10S,13S)-10,13-dimethyl-17-(pyridin-3-yl)-1,2,4,5,6,7,8,9,10,11,12,13,14,15-tetradecahydro-3′H-spiro[cyclopenta[a]phenanthrene-3,2′-furan]-5′(4′H)-one]	< 10
CCNC(=O)N[C@@H]1CC[C@@]2(C)C(=CCC3C2CC[C@]2(C)C(c4cncc(F)c4)=CCC32)C1 (stereo partly drawn) [Compound 478, 1-ethyl-3-((3R,10R,13S)-17-(5-fluoropyridin-3-yl)-10,13-dimethyl-2,3,4,7,8,9,10,11,12,13,14,15-dodecahydro-1H-cyclopenta[a]phenanthren-3-yl)urea]	10 to 50
C[C@]12CCNC(=O)CC1CCC1C2CC[C@]2(C)C(c3cncc(C(F)F)c3)=CCC12 (stereo partly drawn) [Compound 483, (5aS,7aS)-8-(5-(difluoromethyl)pyridin-3-yl)-5a,7a-dimethyl-3,4,5,5a,5b,6,7,7a,10,10a,10b,11,12,12a-tetradecahydrocyclopenta[5,6]naphtho[1,2-d]azepin-2(1H)-one]	> 50

same assay, conditions: compound at 1 nM, read-out: CYP17 enzymatic assay % inhibition at 1 nM (Biological Example No. 12)

inhibition at 0.001 µM [%]	Structure (SMILES)
10 to 50	Cc1cncc(C2=CC=C3[C@@H]4CCC5CNC(=O)CC[C@]5(C)[C@H]4CC[C@]23C)c1 (stereo partly drawn) [Compound 461, (5aR,5bS,7aS,10bR)-5a,7a-dimethyl-8-(5-methylpyridin-3-yl)-1,2,5,5a,5b,6,7,7a,10b,11,12,12a-dodecahydrocyclopenta[5,6]naphtho[2,1-c]azepin-3(4H)-one]
10 to 50	Cc1ccncc1C1=CC=C2C3CCC4CC(=O)NCC[C@]4(C)C3CC[C@]12C (stereo partly drawn) [Compound 463, (5aS,7aS)-5a,7a-dimethyl-8-(4-methylpyridin-3-yl)-3,4,5,5a,5b,6,7,7a,10b,11,12,12a-dodecahydrocyclopenta[5,6]naphtho[1,2-d]azepin-2(1H)-one]
10 to 50	Cc1ccncc1C1=CC=C2C3CCC4CNC(=O)CC[C@]4(C)C3CC[C@]12C (stereo partly drawn) [Compound 464, (5aR,7aS)-5a,7a-dimethyl-8-(4-methylpyridin-3-yl)-1,2,5,5a,5b,6,7,7a,10b,11,12,12a-dodecahydrocyclopenta[5,6]naphtho[2,1-c]azepin-3(4H)-one]
10 to 50	CCc1ccncc1C1=CC=C2C3CCC4CC(=O)NCC[C@]4(C)C3CC[C@]12C (stereo partly drawn) [Compound 467, (5aS,7aS)-8-(4-ethylpyridin-3-yl)-5a,7a-dimethyl-3,4,5,5a,5b,6,7,7a,10b,11,12,12a-dodecahydrocyclopenta[5,6]naphtho[1,2-d]azepin-2(1H)-one]
10 to 50	CCc1ccncc1C1=CC=C2C3CCC4CNC(=O)CC[C@]4(C)C3CC[C@]12C (stereo partly drawn) [Compound 468, (5aR,7aS)-8-(4-ethylpyridin-3-yl)-5a,7a-dimethyl-1,2,5,5a,5b,6,7,7a,10b,11,12,12a-dodecahydrocyclopenta[5,6]naphtho[2,1-c]azepin-3(4H)-one]
10 to 50	CCc1ccncc1C1=CC[C@H]2[C@@H]3CC[C@H]4CC(=O)NCC[C@]4(C)[C@H]3CC[C@]12C [Compound 469, (5aS,5bS,7aS,10aS,10bR,12aS)-8-(4-ethylpyridin-3-yl)-5a,7a-dimethyl-3,4,5,5a,5b,6,7,7a,10,10a,10b,11,12,12a-tetradecahydrocyclopenta[5,6]naphtho[1,2-d]azepin-2(1H)-one]
< 10	CCc1ccncc1C1=CC[C@H]2[C@@H]3CC[C@H]4CNC(=O)CC[C@]4(C)[C@H]3CC[C@]12C [Compound 470, (5aR,5bS,7aS,10aS,10bR,12aR)-8-(4-ethylpyridin-3-yl)-5a,7a-dimethyl-1,2,5,5a,5b,6,7,7a,10,10a,10b,11,12,12a-tetradecahydrocyclopenta[5,6]naphtho[2,1-c]azepin-3(4H)-one]

Structure (SMILES)	inhibition at 0.001 µM [%]
CO[C@H]1CC[C@@]2(C)C(=CCC3C2CC[C@]2(C)C(n4ccnc4)=CCC32)C1 (stereo partly drawn) [Compound 459, 1-((3S,10R,13S)-3-methoxy-10,13-dimethyl-2,3,4,7,8,9,10,11,12,13,14,15-dodecahydro-1H-cyclopenta[a]phenanthren-17-yl)-1H-imidazole]	10 to 50
CCc1ccncc1C1=CC=C2C3CCC4C[C@@H](O)CC[C@]4(C)C3CC[C@]12C (stereo partly drawn) [Compound 465, (3S,10S,13S)-17-(4-ethylpyridin-3-yl)-10,13-dimethyl-2,3,4,5,6,7,8,9,10,11,12,13-dodecahydro-1H-cyclopenta[a]phenanthren-3-ol]	< 10
CC(=O)O[C@H]1CC[C@@]2(C)C(CCC3C4=CC=C(c5cnccc5C)[C@@]4(C)CCC32)C1 (stereo partly drawn) [Compound 466, (3S,10S,13S)-10,13-dimethyl-17-(4-methylpyridin-3-yl)-2,3,4,5,6,7,8,9,10,11,12,13-dodecahydro-1H-cyclopenta[a]phenanthren-3-yl acetate]	10 to 50
C[C@]12CC[C@H](O)CC1CCC1C2CC[C@]2(C)C(c3ccc[n+]([O-])c3)CCC12 (stereo partly drawn) [Compound 472, 3-((3S,10S,13S)-3-hydroxy-10,13-dimethylhexadecahydro-1H-cyclopenta[a]phenanthren-17-yl)pyridine 1-oxide]	10 to 50
C[C@]12CC[C@H](O)CC1CCC1C2CC[C@]2(C)C(c3cccnc3)CCC12 (stereo partly drawn) [Compound 473, (3S,10S,13S)-10,13-dimethyl-17-(pyridin-3-yl)hexadecahydro-1H-cyclopenta[a]phenanthren-3-ol]	< 10

same assay, conditions: test compound at 1 nM, read-out: CYP17 enzymatic assay percent inhibition at 1 nM (Biological Example No. 12)

Structure (SMILES)	inhibition at 0.001 µM [%]
Cc1ccncc1C1=CC[C@H]2[C@@H]3CC[C@H]4CNC(=O)CC[C@]4(C)[C@H]3CC[C@]12C [Compound 484, (5aR,5bS,7aS,10aS,10bR,12aR)-5a,7a-dimethyl-8-(4-methylpyridin-3-yl)-1,2,5,5a,5b,6,7,7a,10,10a,10b,11,12,12a-tetradecahydrocyclopenta[5,6]naphtho[2,1-c]azepin-3(4H)-one]	10 to 50
Cc1ccncc1C1=CC=C2C3CCC4C[C@@H](O)CC[C@]4(C)C3CC[C@]12C (stereo partly drawn) [Compound 485, (3S,10S,13S)-10,13-dimethyl-17-(4-methylpyridin-3-yl)-2,3,4,5,6,7,8,9,10,11,12,13-dodecahydro-1H-cyclopenta[a]phenanthren-3-ol]	10 to 50
Cc1ccncc1C1=CC=C2C3CCC4CC(=O)CC[C@]4(C)C3CC[C@]12C (stereo partly drawn) [Compound 486, (10S,13S)-10,13-dimethyl-17-(4-methylpyridin-3-yl)-4,5,6,7,8,9,10,11,12,13-decahydro-1H-cyclopenta[a]phenanthren-3(2H)-one]	10 to 50
